Results: patent US12668596B2, “Process for crystallizing nalmefene hydrochloride” (RHODES TECHNOLOGIES, priority 2021, dated 2026)
Where a name gives a salt, the structure may show the parent alone.

Test: Solubility studies of nalmefene HCl monohydrate in aqueous HCl (visual dissolution at 80° C.)
Assay type: physicochemical
Experimental: A series of nalmefene HCl monohydrate solubility experiments were carried out in aqueous HCl. Nalmefene HCl monohydrate (520 mg) was charged to a 4 mL capped vial, followed by solvent (0-6 M HCl, 780 μL, 1.5 volumes) and heated to 80° C. on a pie-block. Increasing amounts of solvent were added periodically until dissolution was achieved (determined visually).
Seven dissolution experiments were carried out.

Compound: C=C1CC[C@@]2(O)[C@H]3Cc4ccc(O)c5c4[C@@]2(CCN3CC2CC2)[C@H]1O5 [Nalmefene HCl, 17-(cyclopropylmethyl)-4,5α-epoxy-6-methylenemorphinan-3,14-diol]
- Volumes needed to dissolve nalmefene HCl at 80° C. (Sample No. 0, HCl molarity 0 (water), 520 mg): Fewer than 1.5 Volumes
- Volumes needed to dissolve nalmefene HCl at 80° C. (Sample No. 1, HCl molarity 1, 520 mg): 1.5 Volumes
- Volumes needed to dissolve nalmefene HCl at 80° C. (Sample No. 2, HCl molarity 2, 520 mg): 2.5 Volumes
- Volumes needed to dissolve nalmefene HCl at 80° C. (Sample No. 3, HCl molarity 3, 520 mg): 6.5 Volumes
- Volumes needed to dissolve nalmefene HCl at 80° C. (Sample No. 4, HCl molarity 4, 520 mg): 6.5 Volumes
- Volumes needed to dissolve nalmefene HCl at 80° C. (Sample No. 5, HCl molarity 5, 520 mg): 4.0 Volumes
- Volumes needed to dissolve nalmefene HCl at 80° C. (Sample No. 6, HCl molarity 6, 520 mg): 3.5 Volumes
- HCl molarity at which solubility is at a minimum (aqueous HCl 0-6 M): 3-4 M HCl
